{"source": "patent US10729782B2", "about": "“Antibody-drug conjugate produced by binding through linker having hydrophilic structure” (DAIICHI SANKYO COMPANY, LIMITED, priority 2012, dated 2020)", "origin": "cited, not measured here", "key": {"various cancer cells": {"system": "various cancer cells", "conditions": "against various cancer cells, compared with SN-38 and topotecan; cited from earlier work"}, "[1]": {"system": "human tumor subcutaneously transplanted mouse model", "conditions": "cited from earlier work"}, "topoisomerase I": {"target": "T1, topoisomerase I (Homo sapiens, UniProt P11387)", "T1 sequence (P11387 1-765)": "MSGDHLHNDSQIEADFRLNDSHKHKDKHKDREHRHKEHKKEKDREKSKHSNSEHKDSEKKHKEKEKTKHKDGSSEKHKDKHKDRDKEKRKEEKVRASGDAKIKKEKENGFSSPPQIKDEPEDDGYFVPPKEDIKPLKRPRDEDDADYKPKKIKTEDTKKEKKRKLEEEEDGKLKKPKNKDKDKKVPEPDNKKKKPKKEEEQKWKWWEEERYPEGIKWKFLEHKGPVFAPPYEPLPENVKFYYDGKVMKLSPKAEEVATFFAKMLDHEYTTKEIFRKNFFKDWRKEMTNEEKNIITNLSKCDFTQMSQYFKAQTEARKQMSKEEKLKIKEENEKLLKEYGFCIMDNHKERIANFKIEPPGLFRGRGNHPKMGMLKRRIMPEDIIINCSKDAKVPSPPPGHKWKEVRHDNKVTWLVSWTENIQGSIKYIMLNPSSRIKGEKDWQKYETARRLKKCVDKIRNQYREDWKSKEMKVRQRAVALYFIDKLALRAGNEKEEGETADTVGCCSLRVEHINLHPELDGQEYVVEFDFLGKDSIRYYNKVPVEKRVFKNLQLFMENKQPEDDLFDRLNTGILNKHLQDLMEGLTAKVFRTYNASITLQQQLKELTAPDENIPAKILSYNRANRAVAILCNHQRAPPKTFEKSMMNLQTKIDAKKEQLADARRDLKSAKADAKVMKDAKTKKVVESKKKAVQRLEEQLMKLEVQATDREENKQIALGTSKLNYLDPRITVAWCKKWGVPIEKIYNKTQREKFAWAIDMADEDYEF", "conditions": "compared with SN-38 and topotecan; cited from earlier work"}}, "data": [{"smiles": "CC[C@@]1(O)C(=O)OCc2c1cc1n(c2=O)Cc2c-1nc1cc(F)c(C)c3c1c2[C@@H](N)CC3", "note": "[exatecan, (1S,9S)-1-amino-9-ethyl-5-fluoro-2,3-dihydro-9-hydroxy-4-methyl-1H,12H-benzo[de]pyrano[3′,4′:6,7]indolizino[1,2-b]quinolin-10,13(9H,15H)-dione]", "values": [{"measurement": "in vitro cytocidal activity", "setting": "various cancer cells", "result": "higher in vitro cytocidal activity"}, {"measurement": "antitumor effect", "setting": "[1]", "result": "potent antitumor effect"}, {"measurement": "inhibitory activity on topoisomerase I", "setting": "topoisomerase I", "result": "higher than SN-38"}]}]}
